Reference: patent publication US7795229B2, “Serum cholesterol lowering agent or preventative or therapeutic agent for atherosclerosis” (Kotobuki Pharmaceutical Co., Ltd., priority 2003, dated 2010)

Tests used:
[1] = system: cholesterol-fed rat; assay: Serum cholesterol lowering action in cholesterol-fed rat; type: in vivo; settings: for Reduction % of serum cholesterol value: cholesterol-fed rat, value to control
Description: Male Splague-Dawley rats weighing 300˜500 g (Nihon SLC Co. Ltd.) were fed MF-2 chow (Nihon Crea Co. Ltd.) until study onset. At the study onset, the chow was changed to MF-2 chow containing 1% cholesterol and 0.5% cholic acid. […] Twenty hours after the last administration, blood was collected from the abdominal aorta under ether anaesthesia, and serum was separated. The cholesterol value was measured using Cholesterol E Test Wako (Wako Pure Chemical Co. Ltd.). […] The experimental 5 and 6 indicates the combined dosage examples in the present invention. Each reduction percent is shown as the value to control.
Except of the use of compound 37 instead of compound 56, quietly same experiment to pharmacological experiment 1 was carried out. Each reduction % is shown as the value to control.

[2] = alone, 0.03 mg/kg/day, once a day for 7 days
[3] = alone, 0.3 mg/kg/day, once a day for 7 days
[4] = alone, 1 mg/kg/day, once a day for 7 days
[5] = combined dosage: compound 0.3 mg/kg/day + atorvastatin 1 mg/kg/day
[6] = combined dosage: compound 0.3 mg/kg/day + atorvastatin 1 mg/kg/day, 7 days
[7] = combined dosage: compound 0.3 mg/kg/day + fenofibrate 10 mg/kg/day
[8] = combined dosage: compound 0.3 mg/kg/day + fenofibrate 10 mg/kg/day, 7 days

With O=C1[C@H](CC[C@H](O)c2ccc(F)cc2)[C@@H](c2ccc([C@@H]3O[C@H](CO)[C@@H](O)[C@H](O)[C@H]3O)cc2)N1c1ccccc1 [Compound 37] as the molecule, how does the melting point read?
The melting point was 80 to 82 °C.

What about the “Reduction % of serum cholesterol value” [1, 2] of the same molecule?
Its value is 5.6%.

What about the “Reduction % of serum cholesterol value” [1, 3] of the same molecule?
Its value is 18.0%.

What about the “Reduction % of serum cholesterol value” [1, 4] of the same molecule?
The value was 31.0%.

And the “Combination effect on reduction % of serum cholesterol versus sum of agents alone” value [1, 5]?
The value was “synergistic effect”.

What about the “Reduction % of serum cholesterol value” [1, 6] of the same molecule?
Its value is 31.5%.

And the “Combination effect on reduction % of serum cholesterol versus sum of agents alone” value [1, 7]?
The value was “synergistic effect”.

And the “Reduction % of serum cholesterol value” [1, 8]?
The value was 39.5%.

What does the source list for O=C1[C@H](CC[C@H](O)c2ccc(F)cc2)[C@@H](c2ccc(CC[C@@H]3O[C@H](CO)[C@@H](O)[C@H](O)[C@H]3O)cc2)N1c1ccccc1 [Compound 56]?
melting point: 82 to 84 °C; Reduction % of serum cholesterol value [1, 2]: 1.9%; Reduction % of serum cholesterol value [1, 3]: 6.9%; Reduction % of serum cholesterol value [1, 4]: 33.5%; Combination effect on reduction % of serum cholesterol versus sum of agents alone [1, 5]: synergistic effect; Reduction % of serum cholesterol value [1, 6]: 20.2%; Combination effect on reduction % of serum cholesterol versus sum of agents alone [1, 7]: synergistic effect; Reduction % of serum cholesterol value [1, 8]: 41.3%

With CC(C)c1c(C(=O)Nc2ccccc2)c(-c2ccccc2)c(-c2ccc(F)cc2)n1CC[C@@H](O)C[C@@H](O)CC(=O)O [Atorvastatin, atorvastatin, reference compound] as the molecule, how does the “Reduction % of serum cholesterol value” [1, 4] read?
Its value is 6.2%.

For CC(=O)OC[C@H]1O[C@@H](Cc2ccc([C@@H]3[C@@H](CCCc4ccc(F)cc4)C(=O)N3c3ccccc3)cc2)[C@H](OC(C)=O)[C@@H](OC(C)=O)[C@@H]1OC(C)=O [Compound 10], which melting point is on record?
The melting point was 60 to 61 °C.

Which melting point does the source give for O=C1[C@H](CCCc2ccc(F)cc2)[C@H](c2ccc(C[C@@H]3O[C@H](CO)[C@@H](O)[C@H](O)[C@H]3O)cc2)N1c1ccc(F)cc1 [Compound 40] here?
Its melting point is 78 to 80 °C.

For COc1ccc(N2C(=O)[C@H](CCCc3ccc(F)cc3)[C@H]2c2ccc(C[C@@H]3O[C@H](CO)[C@@H](O)[C@H](O)[C@H]3O)cc2)cc1 [Compound 5], which melting point is on record?
The melting point was 73 to 75 °C.

Which melting point does the source give for O=C1[C@H](CC[C@H](O)c2ccc(F)cc2)[C@@H](c2ccc([C@@H]3O[C@H](CO)[C@@H](O)[C@H](O)[C@H]3O)cc2)N1c1ccc(F)cc1 [Compound 35] here?
The melting point was 81 to 83 °C.

For Cc1ccc(N2C(=O)[C@H](CCC(=O)c3ccc(F)cc3)[C@H]2c2ccc(C[C@@H]3O[C@H](CO)[C@@H](O)[C@H](O)[C@H]3O)cc2)cc1 [Compound 28], which melting point is on record?
The melting point was 86 to 88 °C.

For O=C1[C@H](CC[C@H](O)c2ccc(F)cc2)[C@@H](c2ccc(/C=C/CCC[C@@H]3O[C@H](CO)[C@@H](O)[C@H](O)[C@H]3O)cc2)N1c1ccc(F)cc1 [Compound 54], which melting point is on record?
The melting point was 69 to 71 °C.

Which melting point does the source give for O=C1[C@H](CC[C@H](O)c2ccc(F)cc2)[C@@H](c2ccc(F)cc2)N1c1ccc(C[C@@H]2O[C@H](CO)[C@@H](O)[C@H](O)[C@H]2O)cc1 [Compound 38] here?
Its melting point is 200 to 201 °C.

With O=C1[C@H](CCCc2ccc(F)cc2)[C@@H](c2ccc(C[C@@H]3O[C@H](CO)[C@@H](O)[C@H](O)[C@H]3O)cc2)N1c1ccc(F)cc1 [Compound 2] as the molecule, how does the melting point read?
The melting point was 110 to 112 °C.
